{
  "source": "patent US20030138476A1",
  "about": "“Use of glutamate and/or a glutamate precursor for the preparation of a nutritional or pharmaceutical preparation for the treatment or prevention of hyperpermeability or undesired permeability of the intestinal wall” (priority 2000, published 2003)",
  "key": {"HT-29CL.19A cells [1]": {"test_system": "HT-29CL.19A cells", "experiment": "Transepithelial (apical to basolateral) HRP permeability of HT-29CL.19A monolayers, hyperpermeability induced by PDB", "format": "cell-based, human", "details": "PDB 1 mmol/l", "text": "The macromolecular permeability of the intestinal epithelium is controlled by the passage through intercellular tight junctions in the paracellular channels. Opening of these tight junctions is controlled by the epithelial cells in response to various intercellular mediators, such as Ca, cyclic AMP, G proteins and protein kinase c. The human intestinal cell line HT-29CL.19A is becoming increasingly more important for studying this paracellular permeability in vitro. See also the abovementioned article in J. Parenteral Enteral Nutrition, that is incorporated herein by reference.\nFor the present examples, confluent monolayers of HT-29CL19A cells were cultured on permeability filters. […] The transepithelial permeability from apical to basolateral was determined for horseradish peroxidase (HRP) with the aid of an enzyme assay. Phorbol 12,13-dibutyrate (PDB, 1 mmol/l) was used to increase the permeability. […] All agents were added to the apical compartment."}, "[2]": {"details": "cited from earlier work"}, "HT-29CL.19A cells [3]": {"test_system": "HT-29CL.19A cells", "details": "Kouznetsova et al. J. Parenteral Enteral Nutrition 23 (1999) 136-139; cited from earlier work"}},
  "data": [
    {"smiles": "N[C@@H](CCC(=O)O)C(=O)O", "note": "[Glutamate, glutamate]", "values": [
      {"measurement": "effect on PDB-induced hyperpermeability (HRP flux)", "setting": "HT-29CL.19A cells [1]; glutamate 0.6 mmol/l, apical, p<0.001", "value": "had the same effect"},
      {"measurement": "effect on PDB-induced hyperpermeability (HRP flux)", "setting": "HT-29CL.19A cells [1]; glutamate 0.6 mmol/l, apical, p<0.001, listed as glutamate", "value": "reduces the macromolecular hyperpermeability"}
    ]},
    {"smiles": "CCCC(=O)O[C@@H]1[C@@H](C)[C@@]2(O)[C@@H](C=C(CO)C[C@]3(O)C(=O)C(C)=C[C@@H]23)[C@@H]2C(C)(C)[C@]12OC(=O)CCC", "note": "[PDB, Phorbol 12,13-dibutyrate]", "values": [
      {"measurement": "increase of HRP flux compared with the control", "setting": "HT-29CL.19A cells [1]; apical, after 150-279 min stimulation, p<0.001", "value": 3, "unit": "fold"}
    ]},
    {"smiles": "N[C@H](C(=O)O)[C@@H]1CC(Cl)=NO1", "note": "[Acivicin, acivicin]", "values": [
      {"measurement": "effect of acivicin on the reduction in PDB-induced hyperpermeability in the presence of glutamate", "setting": "HT-29CL.19A cells [1]; in the presence of glutamate", "value": "This effect did not occur"},
      {"measurement": "effect of acivicin on the glutamine-mediated reduction in PDB-induced hyperpermeability", "setting": "HT-29CL.19A cells [1]; in the presence of glutamine", "value": "prevented the glutamine-mediated reduction in the hyperpermeability"}
    ]},
    {"smiles": "NC(=O)CC[C@H](N)C(=O)O", "note": "[Glutamine, glutamine]", "values": [
      {"measurement": "solubility", "setting": "[2]", "value": "poor solubility"},
      {"measurement": "effect on PDB-induced hyperpermeability (HRP flux)", "setting": "HT-29CL.19A cells [1]; glutamine added to apical compartment", "value": "reduces this hyperpermeability appreciably"},
      {"measurement": "effect on macromolecular hyperpermeability of intestinal cells induced by phorbol 12,13-dibutyrate", "setting": "HT-29CL.19A cells [3]", "value": "able to lower the macromolecular hyperpermeability"}
    ]}
  ]
}
